Read-outs that look alike come from different tables or passages of the source.
How the values were obtained:
Format in all cases: in vivo
[1] = tested on: giant foxtail (Setaria faberi Herrm.); experiment: Test Example 5, foliar treatment versus Reference Compounds; conditions: 4.0 to 4.5 leaf stage, 20th day after application, read-out: Growth inhibition rate (%) (20th day after application) Giant foxtail
Source text: (§1) Upland field soil was put into a 1/1,000,000 hectare pot, and seeds of various plants were sown. When the respective plants reached predetermined leaf stage ((1) velvetleaf (Abutilon theophrasti MEDIC.): 3.0 to 3.5 leaf stage, (2) giant foxtail (Setaria faberi Herrm.): 4.0 to 4.5 leaf stage, (3) green foxtail (Setaria viridis L.): 5.0 to 5.5 leaf stage, and (4) corn (Zea mays L.): 4.0 to 4.3 leaf stage, a wettable powder of compound No. 2-1 of the above-mentioned present invention, a wettable powder of the above-mentioned Reference Compound 1 and a wettable powder of the above-mentioned Reference Compound 2, prepared in accordance with a conventional preparation method, were weighed so that the active ingredients became the prescribed amounts, and diluted with water in an amount corresponding to 300 liter per 1 hectare (containing 0.5 vol % of an agricultural spreader (Destiny HC: WINFIELD SOLUTIONS by LLC). The spray solutions thus prepared were applied for foliar treatment by a small sprayer.
(§2) On the 7th to 20th day after application, the state of growth of the respective plants was visually observed, and the herbicidal effect was evaluated by a growth inhibition rate (%) of 0 (equivalent to the non-treated area) to 100% (complete kill).

[2] = tested on: green foxtail (Setaria viridis L.); experiment: as above; conditions: 5.0 to 5.5 leaf stage, 18th day after application, read-out: Growth inhibition rate (%) (18th day after application) Green foxtail
Source text: as §1, §2

[3] = tested on: velvetleaf (Abutilon theophrasti MEDIC.); experiment: as above; conditions: 3.0 to 3.5 leaf stage, 20th day after application, read-out: Growth inhibition rate (%) (20th day after application) Velvet leaf
Source text: as §1, §2

[4] = tested on: sorgo (Sorghum bicolor Moench) (var.: Lucky Sorgo); experiment: Test Example 6, soil column downward movement, sorgo bioassay; conditions: 14th day after sowing
Protocol: Soil (sterilized soil:sand=3:1) was packed (4 L) into a column (9.5 cm in diameter×40 cm in height, application area: 0.007 m^2), and tap water was dropped from above by a Peristaltic pump before application of the herbicide for the purpose of maintaining the soil moisture to be uniform. Then, 10 mL of a spray solution prepared so that each agent (Compound No. 2-1, the above Reference Compounds 1 and 2) would be at a concentration corresponding to 250 g/ha was dropwise applied by a pipette. After application, water was dropped again at a rate of 400 mL/hr for about 3 hours by means of a Peristaltic pump. After the dropping, the column was left to stand for 1 day, and then the column was vertically evenly divided and seeds of sorgo (Sorghum bicolor Moench) (var.: Lucky Sorgo) were sown in a row. On the 14th day after sowing, the state of growth of the plant was visually observed at 3 cm intervals from the application point of the agent, whereby the germination and the degree of growth were evaluated by a growth inhibition rate (%) of 0 (equivalent to the non-treated area) to 100% (complete kill) to obtain the results in Table 17.
From the above results, the growth inhibition rates of Reference Compounds No. 1 and No. 2 are observed in depths deeper than that of Compound No. 2-1. […] Whereas, Compound No. 2-1 stayed at a shallow portion of soil (in a layer of from 0 to 9 cm).

[5] = tested on: barnyardgrass (Echinochloa crus-galli L.); experiment: Test Example 1, foliar treatment in upland pots; conditions: 20th to 22nd day after application, visual, read-out: Growth inhibition rate (%) Barnyardgrass
Source text: (§3) Upland field soil was put into a 1/170,000 hectare pot, and seeds of various plants were sown. When the respective plants reached predetermined leaf stage ((1) barnyardgrass (Echinochloa crus-galli L.): 1.2 to 3.0 leaf stage, (2) crabgrass (Digitaria sanguinalis L.): 1.0 to 3.0 leaf stage, (3) green foxtail (Setaria viridis L.): 1.5 to 3.0 leaf stage, (4) redroot pigweed (Amaranthus retroflexus L.): cotyledon stage to 1.5 leaf stage, (5) prickly sida (Sida spinosa L.): cotyledon stage to 2.0 leaf stage, (6) velvetleaf (Abutilon theophrasti MEDIC.): cotyledon stage to 1.3 leaf stage, (7) rice (Oryza sativa L.): 1.2 to 2.5 leaf stage, (8) corn (Zea mays L.): 2.0 to 3.3 leaf stage, (9) soybean (Glycine max Merr.): primary leaf stage to 0.3 leaf stage) and wheat (Triticum spp.): 2.0 to 3.0 leaf stage, wettable powders or emulsifiable concentrates of the compounds of the present invention prepared in accordance with a conventional preparation method, were weighed so that the active ingredients became the prescribed amounts, and diluted with water in an amount corresponding to 500 liter per 1 hectare (containing 0.1 vol % of an agricultural spreader (“KUSARINOH”, manufactured by NIHON NOHYAKU CO., LTD.)). The spray solutions thus prepared were applied for foliar treatment by a small sprayer.
(§4) On the 20th to 22nd day after application, the state of growth of the respective plants was visually observed, and the herbicidal effect was evaluated by a growth inhibition rate (%) of 0 (equivalent to the non-treated area) to 100% (complete kill).

corn (Zea mays L.) [6] = experiment: Test Example 1, foliar treatment in upland pots; conditions: 20th to 22nd day after application, visual, read-out: Growth inhibition rate (%) Corn
Source text: as §3, §4

[7] = tested on: crabgrass (Digitaria sanguinalis L.); experiment: Test Example 1, foliar treatment in upland pots; conditions: 20th to 22nd day after application, visual, read-out: Growth inhibition rate (%) Crabgrass
Source text: as §3, §4

[8] = tested on: green foxtail (Setaria viridis L.); experiment: Test Example 1, foliar treatment in upland pots; conditions: 20th to 22nd day after application, visual, read-out: Growth inhibition rate (%) Green foxtail
Source text: as §3, §4

[9] = tested on: prickly sida (Sida spinosa L.); experiment: Test Example 1, foliar treatment in upland pots; conditions: 20th to 22nd day after application, visual, read-out: Growth inhibition rate (%) Prickly sida
Source text: as §3, §4

[10] = tested on: redroot pigweed (Amaranthus retroflexus L.); experiment: Test Example 1, foliar treatment in upland pots; conditions: 20th to 22nd day after application, visual, read-out: Growth inhibition rate (%) Redroot pigweed
Source text: as §3, §4

rice (Oryza sativa L.) [11] = experiment: Test Example 1, foliar treatment in upland pots; conditions: 20th to 22nd day after application, visual, read-out: Growth inhibition rate (%) Rice
Source text: as §3, §4

[12] = tested on: soybean (Glycine max Merr.); experiment: Test Example 1, foliar treatment in upland pots; conditions: 20th to 22nd day after application, visual, read-out: Growth inhibition rate (%) Soybean
Source text: as §3, §4

[13] = tested on: velvetleaf (Abutilon theophrasti MEDIC.); experiment: Test Example 1, foliar treatment in upland pots; conditions: 20th to 22nd day after application, visual, read-out: Growth inhibition rate (%) Velvetleaf
Source text: as §3, §4

wheat (Triticum spp.) [14] = experiment: Test Example 1, foliar treatment in upland pots; conditions: 20th to 22nd day after application, visual, read-out: Growth inhibition rate (%) Wheat
Source text: as §3, §4

[15] = tested on: barnyardgrass (Echinochloa crus-galli L.); experiment: Test Example 2, soil application on the day after sowing; conditions: 21st to 22nd day after application, visual, read-out: Growth inhibition rate (%) Barnyardgrass
Source text: (§5) Upland field soil was put into a 1/170,000 hectare pot, and seeds of various plants (barnyardgrass (Echinochloa crus-galli L.), crabgrass (Digitaria sanquinalis L.), green foxtail (Setaria viridis L.), redroot pigweed (Amaranthus retroflexus L.), prickly sida (Sida spinosa L.), velvetleaf (Abutilon theophrasti MEDIC.), rice (Oryza sativa L.), corn (Zea mays L.), soybean (Glycine max Merr.)) and wheat (Triticum spp.) were sown. On the day after sowing, wettable powders or emulsifiable concentrates of the compounds of the present invention prepared in accordance with a conventional preparation method, were weighed so that the active ingredients became the prescribed amounts, and diluted with water in an amount corresponding to 500 liter per 1 hectare, followed by soil application with a small sprayer.
(§6) On the 21st to 22nd day after the application, the state of growth of the respective plants was visually observed, and the herbicidal effect was evaluated by a growth inhibition rate (%) of from 0 (equivalent to the non-treated area) to 100% (complete kill).

corn (Zea mays L.) [16] = experiment: as above; conditions: 21st to 22nd day after application, visual, read-out: Growth inhibition rate (%) Corn
Source text: as §5, §6

[17] = tested on: crabgrass (Digitaria sanquinalis L.); experiment: as above; conditions: 21st to 22nd day after application, visual, read-out: Growth inhibition rate (%) Crabgrass
Source text: as §5, §6

[18] = tested on: green foxtail (Setaria viridis L.); experiment: as above; conditions: 21st to 22nd day after application, visual, read-out: Growth inhibition rate (%) Green foxtail
Source text: as §5, §6

[19] = tested on: prickly sida (Sida spinosa L.); experiment: as above; conditions: 21st to 22nd day after application, visual, read-out: Growth inhibition rate (%) Prickly sida
Source text: as §5, §6

[20] = tested on: redroot pigweed (Amaranthus retroflexus L.); experiment: as above; conditions: 21st to 22nd day after application, visual, read-out: Growth inhibition rate (%) Redroot pigweed
Source text: as §5, §6

rice (Oryza sativa L.) [21] = experiment: as above; conditions: 21st to 22nd day after application, visual, read-out: Growth inhibition rate (%) Rice
Source text: as §5, §6

[22] = tested on: velvetleaf (Abutilon theophrasti MEDIC.); experiment: as above; conditions: 21st to 22nd day after application, visual, read-out: Growth inhibition rate (%) Velvetleaf
Source text: as §5, §6

wheat (Triticum spp.) [23] = experiment: as above; conditions: 21st to 22nd day after application, visual, read-out: Growth inhibition rate (%) Wheat
Source text: as §5, §6

[24] = tested on: Japanese bulrush (Scirpus juncoides); experiment: Test Example 3, paddy field pot, application to irrigated water; conditions: Schoenoplectiella juncoides, applied at 0.5 leaf stage, 13th to 17th day after application, read-out: Growth inhibition rate (%) Japanese bulrush
Source text: (§7) Paddy field soil was put into a 1/1,000,000 hectare pot, and seeds of barnyardgrass (Echinochloa oryzicola vasing.) and Japanese bulrush (Scirpus juncoides) were sown and lightly covered with soil. Then, pot was left to stand in a greenhouse in a state irrigated to a water depth of from 0.5 to 1 cm, and next day or two days later, tubers of Japanese ribbon waparo (Sagittaria pygmaea) were planted. Then, the irrigated water depth was maintained to be from 3 to 4 cm, and when barnyardgrass and Japanese bulrush reached 0.5 leaf stage, and Japanese ribbon waparo reached primary leaf stage, a water diluted solution of a wettable powder or an emulsifiable concentrate of the compound of the present invention prepared in accordance with a conventional preparation method, was uniformly dropwise applied by a pipette so that the amount of active ingredients would be a prescribed amount. Further, paddy field soil was put into a 1/1,000,000 pot, followed by soil puddling to an irrigated water depth of from 3 to 4 cm. Next day, rice (Oryza sativa L.) (var.: Nihonbare) of two leaf stage was transplanted in a transplantation depth of 3 cm. On the 4th day after transplantation, the compound of the present invention was applied in the same manner as described above.
(§8) On the 13th to 17th day after application, the state of growth of barnyardgrass, Japanese bulrush and Japanese ribbon waparo was visually observed, and on the 20th to 23rd day after application, the state of growth of rice was visually observed, and the herbicidal effect was evaluated by a growth inhibition rate (%) of 0 (equivalent to the non-treated area) to 100% (complete kill).

[25] = tested on: barnyardgrass (Echinochloa oryzicola vasing.); experiment: as above; conditions: applied at 0.5 leaf stage, 13th to 17th day after application, read-out: Growth inhibition rate (%) barnyard grass
Source text: as §7, §8

[26] = tested on: rice (Oryza sativa L.) (var.: Nihonbare); experiment: Test Example 3, paddy field pot, transplanted rice; conditions: applied 4th day after transplantation, 20th to 23rd day after application, read-out: Growth inhibition rate (%) Rice
Source text: as §7, §8

CCn1ncc(C(=O)c2ccc(S(C)(=O)=O)c(OCCOC)c2Cl)c1O [Reference Compound 1]
inhibition at 3.5 g/ha [1]: 30% | inhibition at 7 g/ha [2]: 40% | inhibition at 3.5 g/ha [3]: 45% | inhibition at 250 g/ha ([4]; depth 0-3 cm, read-out: Growth inhibition rate (%) against sorgo, Depth (cm) from the applied surface 0-3): 58% | inhibition at 250 g/ha ([4]; depth 3-6 cm, read-out: Growth inhibition rate (%) against sorgo, Depth (cm) from the applied surface 3-6): 58% | inhibition at 250 g/ha ([4]; depth 6-9 cm, read-out: Growth inhibition rate (%) against sorgo, Depth (cm) from the applied surface 6-9): 58% | inhibition at 250 g/ha ([4]; depth 9-12 cm, read-out: Growth inhibition rate (%) against sorgo, Depth (cm) from the applied surface 9-12): 60% | inhibition at 250 g/ha ([4]; depth 12-15 cm, read-out: Growth inhibition rate (%) against sorgo, Depth (cm) from the applied surface 12-15): 53% | inhibition at 250 g/ha ([4]; depth 15-18 cm, read-out: Growth inhibition rate (%) against sorgo, Depth (cm) from the applied surface 15-18): 35% | inhibition at 250 g/ha ([4]; depth 18-21 cm, read-out: Growth inhibition rate (%) against sorgo, Depth (cm) from the applied surface 18-21): 28% | inhibition at 250 g/ha ([4]; depth 21-24 cm, read-out: Growth inhibition rate (%) against sorgo, Depth (cm) from the applied surface 21-24): 30% | inhibition at 250 g/ha ([4]; depth 24-27 cm, read-out: Growth inhibition rate (%) against sorgo, Depth (cm) from the applied surface 24-27): 28% | inhibition at 250 g/ha ([4]; depth 27-30 cm, read-out: Growth inhibition rate (%) against sorgo, Depth (cm) from the applied surface 27-30): 15%

COCCOc1c(S(C)(=O)=O)ccc(C(=O)c2c(C)nn(C(C)C)c2O)c1C [Compound No. 8-2, (5-Hydroxy-1-isopropyl-3-methyl-1H-pyrazol-4-yl)(3-(2-methoxyethoxy)-2-methyl-4-(methylsulfonyl)phenyl)ketone]
inhibition at 7 g/ha [5]: 20% | inhibition at 7 g/ha (corn (Zea mays L.) [6]): 0% | inhibition at 7 g/ha [7]: 40% | inhibition at 7 g/ha [8]: 50% | inhibition at 7 g/ha [9]: 20% | inhibition at 7 g/ha [10]: 60% | inhibition at 7 g/ha (rice (Oryza sativa L.) [11]): 0% | inhibition at 7 g/ha [12]: 10% | inhibition at 7 g/ha [13]: 60% | inhibition at 7 g/ha (wheat (Triticum spp.) [14]): 0% | inhibition at 250 g/ha [15]: 100% | inhibition at 250 g/ha (corn (Zea mays L.) [16]): 60% | inhibition at 250 g/ha [17]: 100% | inhibition at 250 g/ha [18]: 100% | inhibition at 250 g/ha [19]: 60% | inhibition at 250 g/ha [20]: 100% | inhibition at 250 g/ha (rice (Oryza sativa L.) [21]): 100% | inhibition at 250 g/ha [22]: 70% | inhibition at 250 g/ha (wheat (Triticum spp.) [23]): 20% | inhibition at 63 g/ha [24]: 70% | inhibition at 63 g/ha [25]: 40% | inhibition at 63 g/ha [26]: 10%
